Holding throughout (experiment): PI3 Kinase Activity/Inhibitor Assay (Millipore kit, competitive ELISA)
What all share (format): biochemical
(In general: In an ELISA, binding on a coated surface is turned into a signal by an enzyme label.)

The target in one experiment is PI3Kδ (Homo sapiens (Human), UniProt O00329). From the text:
(§1) The PI3 Kinase Activity/Inhibitor Assay Kit was purchased from Millipore. The dimethylsulfoxide was purchased from Sigma-Aldrich.
(§2) The PI3 Kinase Activity/Inhibitor Assay is a competitive assay used for the fast and sensitive quantitation of activity of the four class I PI3 kinases (p110 α, β, γ, δ). The PI3 Kinase Activity/Inhibitor Assay works on the principle that PI3 Kinase phosphorylates P1(3,4)P2 (PIP2), converting it to PI(3,4,5)P3 (PIP3). The PH domain of the protein GRP-1 binds PIP3 with high affinity and specificity. The kit includes this recombinant protein that is used as the capture protein. This protein binds to the glutathione plate and captures either the PIP3 generated as part of the kinase reaction or the biotinylated-PIP3 tracer included in the kit. The captured biotinylated-PIP3 is detected using streptavidin-HRP conjugate and a colorimetric read out (OD 450). The lower the signal, the higher the PI3 Kinase activity.
(§3) PI3-Kinase included in the Kit was diluted at the ratio of 1:10 with distilled water and stored on ice. The compound was prepared by diluting the stock compound to 100× of the final concentration and then diluted again at the ratio of 1:50 to make 2× of the final concentration with distilled water.
(§4) The prepared PI3-Kinase (5 μL/well) and the compound (5 μL/well) were added to Glutathione-Coated Plate and pre-incubated at room temperature for 10 minutes. After adding 5 μL of 5× Kinase reaction buffer per well, PIP2 was diluted at the ratio of 1:20 with distilled water and 5 μL were added into each well. Distilled water was added up to 25 μL, and the reaction mixture was incubated at room temperature for an hour. Biotinylated-PIP3 was diluted at the ratio of 1:18 with 1×TBS solution and 25 μL of the mixture were put in each well excluding the buffer control well. GRP1-GST was diluted at the ratio of 1:1000 with 1×TBS solution and 50 μL of it was added to every well. The mixture was incubated at room temperature for an hour.
(§5) After removing the solution contained in the wells, the wells were washed 4 times with 200 μL of 1×TBST. SA-HRP was diluted at the ratio of 1:2000 with 1×TBST, then 50 μL of it was added into every well and incubated at room temperature for an hour. Again after removing the solution, they were washed 5 times by adding 200 μL of 1×TBST to each well. 100 μL of TMB solution was added to every well. The plate was developed in the dark for 5-20 minutes. As blue color appeared, the reaction was stopped by adding 100 μL of stop solution to every well, and the plate was read at 450 nm with ELISA Reader (TECAN).
(§6) For the calculation of relative percentage to biotinylated-PIP3, we take the direct absorbance at 450 nm (A450) and set the positive Biotinylated-PIP3 wells as 100 percentage. All the other signals are divided by the Biotinylated-PIP3 average, and multiplied by 100 to show the relative percentage to the positive signal. Relative % to B-PIP3=(A450 of samples include buffer, kinase & inhibitors/A450 of Biotinylated-PIP3 average)×100
(§7) IC50 values were calculated from the values read at 450 nm by using Graphpad Prism 5 software.

Another experiment deals with PI3Kγ (Homo sapiens (Human), UniProt P48736).
Excerpt: as §1, §2, §3, §4, §5, §6, §7

The next experiment addresses PI3Kα (Homo sapiens (Human), UniProt P42336).
Excerpt: as §1, §2, §3, §4, §5, §6, §7

Chain of PI3Kα (P42336 whole entry, looked up, species assumed): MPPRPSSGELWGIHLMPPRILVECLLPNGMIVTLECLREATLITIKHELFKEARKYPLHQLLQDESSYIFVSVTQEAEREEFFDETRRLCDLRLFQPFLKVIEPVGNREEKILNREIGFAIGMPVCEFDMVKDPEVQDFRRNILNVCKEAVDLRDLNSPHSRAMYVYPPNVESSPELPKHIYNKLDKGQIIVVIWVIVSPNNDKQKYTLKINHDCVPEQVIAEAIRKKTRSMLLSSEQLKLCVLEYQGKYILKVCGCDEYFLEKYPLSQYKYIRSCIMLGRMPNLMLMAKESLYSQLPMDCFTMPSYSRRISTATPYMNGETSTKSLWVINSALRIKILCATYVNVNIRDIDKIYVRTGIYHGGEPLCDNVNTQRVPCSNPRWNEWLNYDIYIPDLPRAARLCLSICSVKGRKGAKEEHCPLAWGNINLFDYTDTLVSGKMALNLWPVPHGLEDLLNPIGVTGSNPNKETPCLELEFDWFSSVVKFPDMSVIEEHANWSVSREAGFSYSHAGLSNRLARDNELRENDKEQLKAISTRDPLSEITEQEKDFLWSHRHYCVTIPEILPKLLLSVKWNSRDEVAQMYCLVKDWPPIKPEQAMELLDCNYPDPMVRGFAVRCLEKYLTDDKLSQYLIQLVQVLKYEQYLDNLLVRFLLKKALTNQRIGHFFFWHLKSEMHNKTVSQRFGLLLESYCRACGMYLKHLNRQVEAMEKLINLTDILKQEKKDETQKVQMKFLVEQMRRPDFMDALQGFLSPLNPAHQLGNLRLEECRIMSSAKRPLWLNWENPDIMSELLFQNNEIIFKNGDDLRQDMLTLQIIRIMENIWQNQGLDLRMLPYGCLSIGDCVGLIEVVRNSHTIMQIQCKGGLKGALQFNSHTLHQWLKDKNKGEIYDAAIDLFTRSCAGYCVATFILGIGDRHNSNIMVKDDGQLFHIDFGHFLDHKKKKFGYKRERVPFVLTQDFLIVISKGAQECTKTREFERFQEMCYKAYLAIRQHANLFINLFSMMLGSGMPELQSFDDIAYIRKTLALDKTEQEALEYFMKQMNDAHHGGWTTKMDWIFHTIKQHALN
Chain of PI3Kα (P27986 whole entry partner, looked up, species assumed): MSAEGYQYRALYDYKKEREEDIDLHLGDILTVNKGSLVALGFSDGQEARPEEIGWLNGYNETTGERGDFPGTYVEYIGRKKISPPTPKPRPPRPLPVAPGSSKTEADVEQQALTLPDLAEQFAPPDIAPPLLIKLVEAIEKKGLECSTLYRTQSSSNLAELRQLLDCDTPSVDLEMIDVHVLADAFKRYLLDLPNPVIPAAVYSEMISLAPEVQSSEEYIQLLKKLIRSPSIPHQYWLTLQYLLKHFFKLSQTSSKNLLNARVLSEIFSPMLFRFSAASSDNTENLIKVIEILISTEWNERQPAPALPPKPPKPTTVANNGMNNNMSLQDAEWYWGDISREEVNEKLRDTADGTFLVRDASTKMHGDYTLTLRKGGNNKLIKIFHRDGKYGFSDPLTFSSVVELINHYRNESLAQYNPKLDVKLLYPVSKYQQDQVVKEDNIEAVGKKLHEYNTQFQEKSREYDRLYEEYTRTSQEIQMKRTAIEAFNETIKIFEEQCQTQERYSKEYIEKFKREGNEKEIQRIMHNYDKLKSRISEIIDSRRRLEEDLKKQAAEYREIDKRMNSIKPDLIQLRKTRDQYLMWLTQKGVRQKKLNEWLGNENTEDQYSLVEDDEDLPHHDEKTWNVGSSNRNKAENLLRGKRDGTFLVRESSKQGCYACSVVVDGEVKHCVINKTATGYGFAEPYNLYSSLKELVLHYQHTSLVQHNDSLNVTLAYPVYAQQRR
Chain of PI3Kγ (P48736 whole entry, species assumed): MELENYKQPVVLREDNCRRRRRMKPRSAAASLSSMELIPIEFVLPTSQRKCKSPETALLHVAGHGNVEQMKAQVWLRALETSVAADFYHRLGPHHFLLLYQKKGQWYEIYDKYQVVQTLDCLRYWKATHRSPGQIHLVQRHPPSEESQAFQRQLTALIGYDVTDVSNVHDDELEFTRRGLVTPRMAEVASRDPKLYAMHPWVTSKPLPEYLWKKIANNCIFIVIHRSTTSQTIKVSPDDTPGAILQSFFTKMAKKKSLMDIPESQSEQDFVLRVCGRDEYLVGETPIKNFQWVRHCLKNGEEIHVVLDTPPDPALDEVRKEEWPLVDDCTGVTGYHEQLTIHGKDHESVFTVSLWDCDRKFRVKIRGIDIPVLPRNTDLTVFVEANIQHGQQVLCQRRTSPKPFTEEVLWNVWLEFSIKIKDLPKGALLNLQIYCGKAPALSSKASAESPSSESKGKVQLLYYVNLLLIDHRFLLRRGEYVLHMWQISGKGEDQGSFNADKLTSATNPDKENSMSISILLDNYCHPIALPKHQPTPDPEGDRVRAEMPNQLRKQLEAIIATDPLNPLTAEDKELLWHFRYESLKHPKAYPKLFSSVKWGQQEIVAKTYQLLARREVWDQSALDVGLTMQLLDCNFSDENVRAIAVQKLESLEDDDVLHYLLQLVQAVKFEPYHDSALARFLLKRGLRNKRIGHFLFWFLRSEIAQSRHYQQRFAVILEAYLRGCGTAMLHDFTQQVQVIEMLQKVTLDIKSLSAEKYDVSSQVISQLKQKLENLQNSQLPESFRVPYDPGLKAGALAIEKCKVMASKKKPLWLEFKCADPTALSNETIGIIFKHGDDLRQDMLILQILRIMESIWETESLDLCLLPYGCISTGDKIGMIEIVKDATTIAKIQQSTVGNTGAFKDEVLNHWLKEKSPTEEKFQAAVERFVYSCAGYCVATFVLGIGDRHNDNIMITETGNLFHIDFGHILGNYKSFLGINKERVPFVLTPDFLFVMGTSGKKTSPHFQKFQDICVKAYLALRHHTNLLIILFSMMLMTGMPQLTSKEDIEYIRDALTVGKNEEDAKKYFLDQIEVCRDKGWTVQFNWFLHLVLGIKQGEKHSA
Chain of PI3Kδ (O00329 whole entry, species assumed): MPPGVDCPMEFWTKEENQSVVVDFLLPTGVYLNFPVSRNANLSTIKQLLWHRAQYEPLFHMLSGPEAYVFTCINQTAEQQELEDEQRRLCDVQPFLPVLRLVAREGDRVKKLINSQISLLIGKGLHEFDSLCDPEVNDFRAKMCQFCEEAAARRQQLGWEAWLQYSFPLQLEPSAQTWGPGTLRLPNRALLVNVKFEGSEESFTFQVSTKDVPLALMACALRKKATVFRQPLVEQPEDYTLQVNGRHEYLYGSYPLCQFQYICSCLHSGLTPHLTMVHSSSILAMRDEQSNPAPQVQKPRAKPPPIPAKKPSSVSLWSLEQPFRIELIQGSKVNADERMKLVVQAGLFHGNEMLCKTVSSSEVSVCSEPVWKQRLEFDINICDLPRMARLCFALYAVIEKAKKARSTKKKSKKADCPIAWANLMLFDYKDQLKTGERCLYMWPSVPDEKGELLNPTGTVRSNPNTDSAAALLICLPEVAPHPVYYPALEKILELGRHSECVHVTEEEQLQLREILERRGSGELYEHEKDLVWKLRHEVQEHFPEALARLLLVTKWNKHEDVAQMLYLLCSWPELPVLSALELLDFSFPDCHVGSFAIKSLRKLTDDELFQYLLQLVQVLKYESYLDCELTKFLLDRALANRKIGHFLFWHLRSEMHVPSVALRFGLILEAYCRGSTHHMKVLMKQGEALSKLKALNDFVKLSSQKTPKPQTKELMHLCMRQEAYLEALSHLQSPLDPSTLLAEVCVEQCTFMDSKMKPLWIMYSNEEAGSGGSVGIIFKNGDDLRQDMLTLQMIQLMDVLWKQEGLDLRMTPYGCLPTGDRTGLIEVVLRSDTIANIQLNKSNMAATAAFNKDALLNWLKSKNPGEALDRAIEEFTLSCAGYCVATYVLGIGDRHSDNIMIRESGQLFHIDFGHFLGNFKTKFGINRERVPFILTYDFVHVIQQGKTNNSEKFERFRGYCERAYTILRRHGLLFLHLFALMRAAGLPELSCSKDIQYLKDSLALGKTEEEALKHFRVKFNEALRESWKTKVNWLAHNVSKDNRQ
Chain of PI3Kδ (P27986 whole entry partner, species assumed): as the sequence (P27986 whole entry partner, looked up, species assumed) above

With `O=S(=O)(Nc1cncc(-c2ccc3ncnc(Oc4cccnc4)c3n2)c1)c1ccccc1`, the IC50 on PI3Kδ was below 10 µM; at PI3Kγ it was below 1 µM; on PI3Kα, below 10 µM.

With `O=S(=O)(Nc1cncc(-c2ccc3ncnc(OC4CCOCC4)c3n2)c1)c1ccccc1`, the IC50 was below 10 µM on PI3Kδ, below 1 µM on PI3Kγ and below 10 µM at PI3Kα.

In the case of `O=S(=O)(Nc1cc(-c2ccc3ncnc(OC4CCOCC4)c3n2)cnc1Cl)c1ccc(F)cc1F`, the IC50 on PI3Kδ, at PI3Kγ and on PI3Kα was below 1 µM in each case.

For the molecule `CN1CCC(Oc2ncnc3ccc(-c4cnc(Cl)c(NS(=O)(=O)c5ccc(F)cc5F)c4)nc23)CC1`, the IC50 on PI3Kδ is below 1 µM; at PI3Kγ, below 10 µM; at PI3Kα it was below 1 µM.

In the case of `CN1CCC(Oc2ncnc3ccc(-c4cncc(NS(=O)(=O)c5ccccc5)c4)nc23)CC1`, the IC50 on PI3Kδ, on PI3Kγ and at PI3Kα was below 10 µM each time.

For the molecule `O=S(=O)(Nc1cc(-c2ccc3ncnc(NC4CCOCC4)c3n2)cnc1Cl)c1ccc(F)cc1F`, the IC50 at PI3Kδ, on PI3Kγ and on PI3Kα was below 10 µM throughout.

The term IC50 denotes the concentration that gives 50% inhibition. High values mean weaker potency, low ones greater potency.

The values are drawn from patent US8664230B2, “Pyridopyrimidine derivatives and use thereof” (The Asan Foundation, priority 2011, dated 2014).
